Data taken from PMC7719179, “Small molecule inhibition of Dynamin-dependent endocytosis targets multiple niche signals and impairs leukemia stem cells” (Nature Communications, 2020).
Where “and” joins values, the source holds several entries; their conditions need not be identical. Equal entries are not always repeated.

Assays:
in vitro = conditions: mouse, Relative % viable cells
[1] = system: pre-LSC self-renewal activity; assay: Fold expansion after transplantation of DN3a thymocytes from treated Lmo2^Tg mice; format: in vivo, mouse; conditions: recipients of DN3a thymocytes from treated Lmo2^Tg mice; individual animals
Description: Single-cell suspension of murine thymus cells were intravenously injected into sublethally irradiated (650 Rads) isogenic Ly5.1 (Cd45.1) mice. Fold expansion was calculated by dividing the absolute output number of donor-derived DN3a cells harvested at the experimental endpoint by the respective number of DN3a thymocytes injected in each recipient. Limiting dilution transplantations were performed as described, by injecting various doses (10^1 to 10^6) of thymocytes per recipient, and mice were scored positive when T-cell lineage reconstitution assessed 6 weeks after transplantation was >1%. Leukemia-propagating cell frequency was calculated by applying Poisson statistics using the ELDA: Extreme Limiting Dilution Analysis software (Walter and Eliza Hall Institute Bioinformatics, Parkville VIC, Australia)[96]. Limiting dilution transplantations were performed independently from any other transplantation assays, using thymocytes from three different Lmo2^Tg mice for each cohort. Kaplan–Meier survival and statistical analysis were performed using GraphPad Prism. 6.0 software (GraphPad Software Inc, San Diego CA, USA).

[2] = system: IL-7R and pStat5 in Lmo2^Tg DN3a cells; assay: IL-7R internalization assay and pStat5 in Lmo2^Tg DN3a cells after IL-7; format: cell-based, mouse; conditions: +IL-7, 0.2 μM Dynole 34-2
Description: Phosphoflow analysis was performed as previously described. Briefly, 2 × 10^6 cells stained for surface markers were subsequently resuspended into PBS 1× + 4% v/v paraformaldehyde and incubated for 10 min at 4 °C for fixation. Fixed cells were washed twice using PBS 1×, then resuspended in pre-chilled at −20 °C Perm Buffer III (BD Pharmingen) and incubated 30 min at 4 °C for permeabilization. Cells were washed twice using PBS 1× and incubated overnight at 4 °C in PBS 1× + 2% v/v fetal calf serum (FCS) with Cell Signalling purified antibodies (Genesearch Pty Ltd, Arundel QLD, Australia) against pSTAT5 (Tyr694; #9359), phospho-p38 MAPK (Thr180/Tyr182; #4511), phospho-p44/42 (Erk1/2; #9102), phospho-S6 (Ser235/236; #4856) and phospho-Akt (Ser473; #9271) or isotype control. […] Fluorescence-activated cell sorting (FACS) analysis was performed using LSRII and LSR Fortessa cytometers, following the gating strategies described in Supplementary Fig. 11. […]
For in vitro IL-7 stimulation assays, cells were starved in serum-free DMEM at 37 °C, then incubated with either vehicle or Dynole 34-2 or Ruxolitinib (INCB018424; #S1378, Selleckchem), or DAPT (GSI-IX; #S2215, Selleckchem) resuspended in DMSO for 1 h. […] The analysis was performed in triplicate and the mean fluorescence intensity (MFI) observed without stimulation was reported as 100%.

Work on `N#CC[C@H](C1CCCC1)n1cc(-c2ncnc3[nH]ccc23)cn1` [Ruxolitinib] yielded a viability at 48 h, 0.04 mM (in vitro) of 83.2% and a viability at 48 h, 0.2 mM (in vitro) of 39.6%.

With `CCCCCCCCNC(=O)C(C#N)=Cc1cn(CCCN(C)C)c2ccccc12` [Dynole 34-2, 2-Cyano-N-octyl-3-(1-(3-dimethylaminopropyl)-1H-indol-3-yl)-acrylamide] the “Fold expansion DN3a cells” value [1] was 3.5 fold and 2.36 fold and 9.11 fold and 4.77 fold and 13.12 fold and 6.34 fold and 25.03 fold and 63.73 fold and 32.46 fold, the “IL-7R (MFI)” value [2] was 14813 MFI and 16581 MFI and 16466 MFI and the “pStat5 (MFI)” value [2] was 2583 MFI and 1903 MFI and 3336 MFI and 3007 MFI.
